Measurements from ChEMBL document CHEMBL2413002, “A convenient synthesis of lubeluzole and its enantiomer: evaluation as chemosensitizing agents on human ovarian adenocarcinoma and lung carcinoma cells” (Bioorg Med Chem Lett, 2013).

Columns and labels:
A2780 [1] = experiment: Cytotoxicity against human A2780 cells after 72 hrs by MTT assay; format: functional, cell-based; details: A2780, 72 h
A549 [2] = experiment: Antiproliferative activity against human A549 cells at 0.005 uM after 72 hrs by MTT assay; format: functional; details: A549, 72 h
A549 [3] = experiment: Cytotoxicity against human A549 cells after 72 hrs by MTT assay; format: functional, cell-based; details: A549, 72 h
A2780 [4] = experiment: Antiproliferative activity against human A2780 cells at 0.005 uM after 72 hrs by MTT assay; format: functional; details: A2780, 72 h

SMILES	IC50 (A2780 [1]) [µM]	inhibition at 0.005 µM (A549 [2]) [%]	IC50 (A549 [3]) [µM]	inhibition at 0.005 µM (A2780 [4]) [%]
COc1cccc2c1C(=O)c1c(O)c3c(c(O)c1C2=O)C[C@@](O)(C(=O)CO)C[C@@H]3O[C@H]1C[C@H](N)[C@H](O)[C@H](C)O1 [DOXORUBICIN]	0.023	–	–	–
CN(c1nc2ccccc2s1)C1CCN(C[C@H](O)COc2ccc(F)c(F)c2)CC1 [LUBELUZOLE]	5.7	5.2	14	4.3
CN(c1nc2ccccc2s1)C1CCN(C[C@@H](O)COc2ccc(F)c(F)c2)CC1	14	–	18	–
CC(=O)O[C@H]1C(=O)[C@@]2(C)[C@H]([C@H](OC(=O)c3ccccc3)[C@]3(O)C[C@H](OC(=O)[C@H](O)[C@@H](NC(=O)c4ccccc4)c4ccccc4)C(C)=C1C3(C)C)[C@]1(OC(C)=O)CO[C@@H]1C[C@@H]2O [PACLITAXEL]	–	–	0.014	–
